# Results taken from PMC7794376 (Nature Communications, 2021).
# Where “and” joins values, the source holds several entries; their conditions need not be identical. Equal values may be shown once.
# Legend:
# [1] = system: M. tuberculosis coaBC Tet-OFF conditional knockdown; format: cell-based, Mycobacterium tuberculosis; details: GAST/Fe minimal media
# human CoaB (HCoaB) = human CoaB (HCoaB) (Homo sapiens, UniProt Q9HAB8); assay: EnzChek pyrophosphate assay, HCoaB; format: biochemical
# MtbCoaBC [2] = biological target: T1, MtbCoaBC (Mycobacterium tuberculosis, UniProt P9WNZ1); assay: Competition assays, first half of CoaB reaction (EnzChek, variable CTP or PPA); format: biochemical; details: for mode of inhibition: in words
# T1 sequence (P9WNZ1 whole entry): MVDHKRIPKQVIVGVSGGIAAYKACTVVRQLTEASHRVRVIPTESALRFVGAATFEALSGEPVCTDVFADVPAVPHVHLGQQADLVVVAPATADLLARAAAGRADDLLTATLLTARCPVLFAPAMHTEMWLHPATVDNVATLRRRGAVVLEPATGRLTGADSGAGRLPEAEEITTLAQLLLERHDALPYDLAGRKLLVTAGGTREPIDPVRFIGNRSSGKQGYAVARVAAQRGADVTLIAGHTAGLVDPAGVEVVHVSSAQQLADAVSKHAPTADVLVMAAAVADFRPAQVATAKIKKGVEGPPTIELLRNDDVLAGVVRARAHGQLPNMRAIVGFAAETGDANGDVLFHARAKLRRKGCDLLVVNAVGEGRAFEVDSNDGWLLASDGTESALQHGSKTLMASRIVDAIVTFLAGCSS
# MsmCoaBC = MsmCoaBC (Mycolicibacterium smegmatis, UniProt A0QWT2); assay: EnzChek pyrophosphate assay, CoaB activity of MsmCoaBC; format: biochemical, Mycobacterium smegmatis; details: for Activity: slope of absorbance at 360 nm vs time (s); for inhibition, IC50 MsmCoaBC 2b / reaction rate (slope of absorbance at 360 nm over time), IC50 MsmCoaBC 2b / remaining activity relative to control, IC50 MsmCoaBC 2b: triplicate
# Chain of MsmCoaBC (A0QWT2 whole entry): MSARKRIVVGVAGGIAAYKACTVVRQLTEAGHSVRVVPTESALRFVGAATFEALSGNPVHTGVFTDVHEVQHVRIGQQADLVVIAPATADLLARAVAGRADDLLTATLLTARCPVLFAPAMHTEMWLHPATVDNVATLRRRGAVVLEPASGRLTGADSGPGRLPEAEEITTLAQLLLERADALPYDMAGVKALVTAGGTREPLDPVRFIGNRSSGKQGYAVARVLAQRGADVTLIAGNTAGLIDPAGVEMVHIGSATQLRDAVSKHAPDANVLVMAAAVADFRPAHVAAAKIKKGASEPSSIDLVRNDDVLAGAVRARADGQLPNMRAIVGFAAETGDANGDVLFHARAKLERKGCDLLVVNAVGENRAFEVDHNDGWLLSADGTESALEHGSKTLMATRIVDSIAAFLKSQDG
# Protocol: The commercially available EnzChek pyrophosphate assay kit (E-6645) (Life Technologies) was used for this assay. […] In the assays with HCoaB an enzyme concentration of 1 µM was used instead. […] Assays were performed on either a CLARIOstar or PHERAstar microplate reader (BMG Labtech) in 96-well plates (Greiner). A substrate mixture containing the substrates and the inhibitor was pre-incubated at 25 °C for 10 min. An enzyme solution was prepared and separately pre-incubated at 25 °C for 10 min. The reaction was initiated by the addition of the substrates to the solution containing the enzyme to a final volume of 75 µL. Enzymatic activity was monitored by following the absorbance at 360 nm for 30 min (100 cycles/20 s each cycle) and only the steady-state region of the assay was used for data analysis. Assays were performed in triplicates, including a negative control (lacking PPA) and a positive control (lacking inhibitor).
# MtbCoaBC [3] = biological target: T1, MtbCoaBC; assay: biochemical; format: biochemical; details: 0.015625 uM 2b; replicate R1; read-out: Inhibition % R1
# [4] = 0.015625 uM 2b, relative to average DMSO CT, replicates R1-R3
# [5] = 0.015625 uM 2b, replicates R1-R3
# [6] = 0.03125 uM 2b, relative to average DMSO CT, replicates R1-R3
# [7] = 0.03125 uM 2b, replicates R1-R3
# [8] = 0.0625 uM 2b, relative to average DMSO CT, replicates R1-R3
# [9] = 0.25 uM 2b, relative to average DMSO CT, replicates R1-R3
# [10] = 0.5 uM 2b, relative to average DMSO CT, replicates R1-R3
# [11] = inhibitor concentration 1 (log 0; unit not given)
# [12] = inhibitor concentration 2 (log 0.30103; unit not given)
# Chain of human CoaB (HCoaB) (Q9HAB8 whole entry): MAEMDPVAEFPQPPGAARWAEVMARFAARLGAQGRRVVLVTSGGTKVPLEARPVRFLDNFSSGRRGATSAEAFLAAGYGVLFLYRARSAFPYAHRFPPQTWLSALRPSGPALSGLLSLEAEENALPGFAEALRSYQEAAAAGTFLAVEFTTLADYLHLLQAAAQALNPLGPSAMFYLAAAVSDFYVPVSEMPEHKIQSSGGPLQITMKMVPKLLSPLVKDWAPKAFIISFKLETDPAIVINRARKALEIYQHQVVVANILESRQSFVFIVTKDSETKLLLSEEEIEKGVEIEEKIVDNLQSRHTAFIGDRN
smiles,measurement,setting,value
O=c1cc(-c2ccc(O)c(O)c2)oc2cc(O)c(O)cc12 [compound 2b],sensitisation on incremental silencing of CoaBC,[1],did not sensitise M. tuberculosis further
same,IC50,"human CoaB (HCoaB); 1 µM enzyme, average of three independent experiments ± SD",60 ± 7 µM
same,activity at 3.125 µM,"human CoaB (HCoaB); 3.125 uM compound, HCoaB, relative to average DMSO CT, replicates R1-R3",96.1%
same,Activity %,"human CoaB (HCoaB); 3.125 uM compound, HCoaB, relative to average DMSO CT, replicates R1-R3, 3.125 µM",99.35% and 93.21%
same,Inhibition %,"human CoaB (HCoaB); 3.125 uM compound, HCoaB, replicates R1-R3, 3.125 µM",0.65% and 6.79% and 3.88%
same,activity at 6.25 µM,"human CoaB (HCoaB); 6.25 uM compound, HCoaB, relative to average DMSO CT, replicates R1-R3",97.4%
same,Activity %,"human CoaB (HCoaB); 6.25 uM compound, HCoaB, relative to average DMSO CT, replicates R1-R3, 6.25 µM",94.68% and 99.68%
same,Inhibition %,"human CoaB (HCoaB); 6.25 uM compound, HCoaB, replicates R1-R3, 6.25 µM",5.32% and 0.32% and 2.58%
same,activity at 25 µM,"human CoaB (HCoaB); 25 uM compound, HCoaB, relative to average DMSO CT, replicates R1-R3",66.3%
same,Activity %,"human CoaB (HCoaB); 25 uM compound, HCoaB, relative to average DMSO CT, replicates R1-R3, 25 µM",70.2% and 69.67%
same,inhibition at 25 µM,"human CoaB (HCoaB); 25 uM compound, HCoaB, replicates R1-R3",29.8%
same,Inhibition %,"human CoaB (HCoaB); 25 uM compound, HCoaB, replicates R1-R3, 25 µM",30.33% and 33.67%
same,activity at 50 µM,"human CoaB (HCoaB); 50 uM compound, HCoaB, relative to average DMSO CT, replicates R1-R3",59%
same,Activity %,"human CoaB (HCoaB); 50 uM compound, HCoaB, relative to average DMSO CT, replicates R1-R3, 50 µM",54.55% and 56.86%
same,inhibition at 50 µM,"human CoaB (HCoaB); 50 uM compound, HCoaB, replicates R1-R3",45.5%
same,Inhibition %,"human CoaB (HCoaB); 50 uM compound, HCoaB, replicates R1-R3, 50 µM",43.14% and 41.04%
same,activity at 100 µM,"human CoaB (HCoaB); 100 uM compound, HCoaB, relative to average DMSO CT, replicates R1-R3",38%
same,Activity %,"human CoaB (HCoaB); 100 uM compound, HCoaB, relative to average DMSO CT, replicates R1-R3, 100 µM",40.03% and 34.07%
same,inhibition at 100 µM,"human CoaB (HCoaB); 100 uM compound, HCoaB, replicates R1-R3",60%
same,Inhibition %,"human CoaB (HCoaB); 100 uM compound, HCoaB, replicates R1-R3, 100 µM",65.93% and 62.02%
same,mode of inhibition,MtbCoaBC [2]; relative to CTP,mixed inhibition
same,mode of inhibition,MtbCoaBC [2]; relative to PPA,uncompetitive inhibition
same,Inibition type,MtbCoaBC [2]; variable substrate CTP,Mixed
same,Ki,MtbCoaBC [2]; variable substrate CTP,93 ± 18 nM
same,IC50,MsmCoaBC,180 ± 20 nM
same,Activity %,MsmCoaBC; [4],94.35% and 94.28%
same,activity at 0.015625 µM,MsmCoaBC; [4],95.3%
same,Inhibition %,MsmCoaBC; [5],5.72% and 4.75%
same,inhibition at 0.015625 µM,MsmCoaBC; [5],5.65%
same,Activity,MsmCoaBC; [5],0.0002955 and 0.0002927 and 0.0002925
same,Activity %,MsmCoaBC; [6],88.08% and 86.2%
same,activity at 0.03125 µM,MsmCoaBC; [6],89.5%
same,Inhibition %,MsmCoaBC; [7],13.80% and 10.50%
same,inhibition at 0.03125 µM,MsmCoaBC; [7],11.9%
same,Activity,MsmCoaBC; [7],0.0002776 and 0.0002732 and 0.0002674
same,Activity %,MsmCoaBC; [8],71.12% and 70.67%
same,activity at 0.0625 µM,MsmCoaBC; [8],74.4%
same,Inhibition %,"MsmCoaBC; 0.0625 uM 2b, replicates R1-R3",29.33% and 25.59%
same,inhibition at 0.0625 µM,"MsmCoaBC; 0.0625 uM 2b, replicates R1-R3",28.9%
same,Activity,"MsmCoaBC; 0.0625 uM 2b, replicates R1-R3",0.0002308 and 0.0002206 and 0.0002192
same,Activity %,MsmCoaBC; [9],41.76% and 47.03%
same,activity at 0.25 µM,MsmCoaBC; [9],45.6%
same,Inhibition %,"MsmCoaBC; 0.25 uM 2b, replicates R1-R3",52.97% and 54.45%
same,inhibition at 0.25 µM,"MsmCoaBC; 0.25 uM 2b, replicates R1-R3",58.2%
same,Activity,"MsmCoaBC; 0.25 uM 2b, replicates R1-R3",0.0001413 and 0.0001296 and 0.0001459
same,Activity %,MsmCoaBC; [10],29.05% and 29.76%
same,activity at 0.5 µM,MsmCoaBC; [10],30.5%
same,Inhibition %,"MsmCoaBC; 0.5 uM 2b, replicates R1-R3",70.24% and 69.54%
same,inhibition at 0.5 µM,"MsmCoaBC; 0.5 uM 2b, replicates R1-R3",71%
same,Activity,"MsmCoaBC; 0.5 uM 2b, replicates R1-R3",0.000094507 and 0.000090122 and 0.000092326
same,"inhibition, IC50 MsmCoaBC 2b",MsmCoaBC; [11],88.05 and 84.53 and 91.37
same,"reaction rate (slope of absorbance at 360 nm over time), IC50 MsmCoaBC 2b",MsmCoaBC; [11],0.000026783 and 0.000037077 and 0.000047977
same,"remaining activity relative to control, IC50 MsmCoaBC 2b",MsmCoaBC; [11],8.633 and 11.95 and 15.47
same,"inhibition, IC50 MsmCoaBC 2b",MsmCoaBC; [12],96.00 and 96.49 and 94.20
same,"reaction rate (slope of absorbance at 360 nm over time), IC50 MsmCoaBC 2b",MsmCoaBC; [12],0.000017982 and 0.000012403 and 0.000010882
same,"remaining activity relative to control, IC50 MsmCoaBC 2b",MsmCoaBC; [12],5.796 and 3.998 and 3.508
same,inhibition at 0.015625 µM,MtbCoaBC [3],8.08%
